Laboratory results: patent publication US9957231B2, “Iodine(II)-mediated radiofluorination” (The General Hospital Corporation, priority 2014, dated 2018)
One block for each compound: values may come before it.

Experiments:
[1] = Stability of biphenyl spiroiodine(III) ylide precursors; format: physicochemical
Excerpt: Experiments with derivatives of Meldrum's acid 8a and barbituric acid 9a, based on a challenging electron-neutral biphenyl substrate, provided radiochemical conversions of 47% and 53%, respectively. Analogs incorporating substituents on the nitrogen atoms of […] were relatively unstable at room temperature, and analogues with alkyl groups other than methyl on the quaternary carbon of diesters 9b-d were not crystalline. […] Cyclobutyl 10b and cyclopentyl 10c groups provided increased conversions, 70% and 85%, respectively.

[2] = pH assay of the [^18F]FPEB dose with pH indicator paper; format: physicochemical; conditions: formulated dose, n = 3
Description: The pH of [^18F]FPEB was determined by applying a few drops of the dose to pH indicator paper. Match the reference color and the pH value conformed to our release specifications (pH=4.5-8.5).

[3] = Sterility testing in TSB and FTM media; conditions: TSB 20-25° C., FTM 30-35° C., 14 days
Description: Sterility testing was performed post-release and must be started within 30 hours from end of synthesis. [^18F]FPEB sample was inoculated into Trypitcase Soy Broth (TSB) and Fluid Thioglycollate Medium (FTM) media tubes. TSB tubes were incubated at 20-25° C. and FTM tubes were incubated at 30-35° C. for 14 days and must be free of culture growth after 14 days.

Compound: O=C1OC2(CCCCC2)OC(=O)C1=Ic1ccc(-c2ccccc2)cc1 [Example 10a, 1,5-dioxaspiro[5.5]undecane-2,4-dion-[1,1′biphenyl-4-iodonium]ylide]
stability of precursor ([1]; room temperature / solid state): stable crystalline solid

Compound: O=C1OC2(CCCC2)OC(=O)C1=Ic1ccc(-c2ccccc2)cc1 [Example 10c, 6,10-dioxaspiro[4.5]decane-7,9-dion-[1,1′-biphenyl-4-iodonium]ylide]
thermal stability under the radiolabelling conditions ([1]; DMF, 120° C., 10 min): good thermal stability

Compound: N#Cc1cc(C#Cc2ccccn2)cc(I=C2C(=O)OC3(CCCC3)OC2=O)c1 [Example 31, 3-((7,9-dioxo-6,10-dioxaspiro[4.5]decan-8-ylidene)-1.3-iodanyl)-5-(pyridin-2-ylethynyl)benzonitrile]
melting point: 145 to 150 °C (dec.)

Other lines, results leading:

melting point: 175 to 176 °C
Compound: NC(=O)c1cc(F)cc(C#Cc2ccccn2)c1 [Example 32, 3-fluoro-5-(pyridin-2-ylethynyl)benzamide]

pH Assay [2]: 5-5.5 | Sterility Testing [3]: No evidence of growth at 14 days post
Compound: N#Cc1cc([18F])cc(C#Cc2ccccn2)c1 [[^18F]FPEB, [^18F]3-fluoro-5-(pyridin-2-ylethynyl)benzonitrile]
